Data from the supplement of paper PMC8882468.
± gives the standard deviation of the averaged measurements.

tested on: HCI-008 (organoid from a HER2-enriched breast cancer xenograft); assay: CTG-3D luminescence at 96 h relative to day-0 seeding control (ratio to day 0); higher = more growth / less cytotoxicity; PDxO 3D drug screen, 96 h, CTG-3D normalised to day-0 seeding control.; settings: 1 µM; days in culture: 228

`O=C(O)C1(C(=O)O)CCC1.[NH2-].[NH2-].[Pt+2]` [carboplatin] and `O=C(c1ccc(F)c(F)c1Nc1ccc(I)cc1F)N1CC(O)([C@@H]2CCCCN2)C1` [cobimetinib] are within error of each other in “CTG-3D luminescence at 96 h” value: 1.57 ± 0.32 for the first, 1.11 ± 0.17 for the second.

`COc1cc2c(Oc3ccc4[nH]c(C)cc4c3F)ncnc2cc1OCCCN1CCCC1` [cediranib] and `Cc1cc(Nc2ncc(Cl)c(Nc3ccccc3S(=O)(=O)C(C)C)n2)c(OC(C)C)cc1C1CCNCC1` [ceritinib] are within error of each other in “CTG-3D luminescence at 96 h” value: 1.69 ± 0.41 for the first, 1.15 ± 0.37 for the second.

Going from `C[C@@H]1COCCN1c1cc(C2([S@](C)(=N)=O)CC2)nc(-c2cc[nH]c3nccc2-3)n1` [ceralasertib] to `COc1cccc2c1C(=O)c1c(O)c3c(c(O)c1C2=O)C[C@@](O)(C(=O)CO)C[C@@H]3O[C@H]1C[C@H](N)[C@H](O)[C@H](C)O1` [doxorubicin], the “CTG-3D luminescence at 96 h” value falls from 1.36 ± 0.054 to 0.743 ± 0.45.

`C[C@H](NC(=O)CCC(F)(F)F)C(=O)N[C@@H]1C(=O)N(CCO)c2ncccc2-c2ccccc21` [crenigacestat] and `C[C@]12CC[C@@H]3c4ccc(O)cc4C[C@@H](CCCCCCCCC[S+]([O-])CCCC(F)(F)C(F)(F)F)[C@H]3[C@@H]1CC[C@@H]2O` (stereo partly specified) [fulvestrant] are within error of each other in “CTG-3D luminescence at 96 h” value: 1.73 ± 0.47 for the first, 1.62 ± 0.27 for the second.

In the case of `Nc1ccn([C@@H]2O[C@H](CO)[C@@H](O)C2(F)F)c(=O)n1` [gemcitabine], the “CTG-3D luminescence at 96 h” value is reported as 0.596 ± 0.041.

same assay, conditions: 1 µM; days in culture: 244

Compared with `O=C(O)C1(C(=O)O)CCC1.[NH2-].[NH2-].[Pt+2]` [carboplatin], `O=C(c1ccc(F)c(F)c1Nc1ccc(I)cc1F)N1CC(O)([C@@H]2CCCCN2)C1` [cobimetinib] is lower in “CTG-3D luminescence at 96 h” value: 1.78 for the first, 1.1 for the second.

Going from `COc1cc2c(Oc3ccc4[nH]c(C)cc4c3F)ncnc2cc1OCCCN1CCCC1` [cediranib] to `Cc1cc(Nc2ncc(Cl)c(Nc3ccccc3S(=O)(=O)C(C)C)n2)c(OC(C)C)cc1C1CCNCC1` [ceritinib], the “CTG-3D luminescence at 96 h” value falls from 1.62 to 1.47.

Going from `C[C@@H]1COCCN1c1cc(C2([S@](C)(=N)=O)CC2)nc(-c2cc[nH]c3nccc2-3)n1` [ceralasertib] to `COc1cccc2c1C(=O)c1c(O)c3c(c(O)c1C2=O)C[C@@](O)(C(=O)CO)C[C@@H]3O[C@H]1C[C@H](N)[C@H](O)[C@H](C)O1` [doxorubicin], the “CTG-3D luminescence at 96 h” value falls from 1.26 to 0.849.

Compared with `C[C@H](NC(=O)CCC(F)(F)F)C(=O)N[C@@H]1C(=O)N(CCO)c2ncccc2-c2ccccc21` [crenigacestat], `C[C@]12CC[C@@H]3c4ccc(O)cc4C[C@@H](CCCCCCCCC[S+]([O-])CCCC(F)(F)C(F)(F)F)[C@H]3[C@@H]1CC[C@@H]2O` (stereo partly specified) [fulvestrant] is higher in “CTG-3D luminescence at 96 h” value: 1.38 for the first, 1.59 for the second.

In the case of `Nc1ccn([C@@H]2O[C@H](CO)[C@@H](O)C2(F)F)c(=O)n1` [gemcitabine], the “CTG-3D luminescence at 96 h” value is reported as 0.69.

same assay, conditions: 10 µM; days in culture: 228

`O=C(O)C1(C(=O)O)CCC1.[NH2-].[NH2-].[Pt+2]` [carboplatin] and `O=C(c1ccc(F)c(F)c1Nc1ccc(I)cc1F)N1CC(O)([C@@H]2CCCCN2)C1` [cobimetinib] are within error of each other in “CTG-3D luminescence at 96 h” value: 1.31 ± 0.16 for the first, 1 ± 0.69 for the second.

`COc1cc2c(Oc3ccc4[nH]c(C)cc4c3F)ncnc2cc1OCCCN1CCCC1` [cediranib] and `Cc1cc(Nc2ncc(Cl)c(Nc3ccccc3S(=O)(=O)C(C)C)n2)c(OC(C)C)cc1C1CCNCC1` [ceritinib] are within error of each other in “CTG-3D luminescence at 96 h” value: -0.102 ± 0.18 for the first, -0.138 ± 0.21 for the second.

Compared with `C[C@@H]1COCCN1c1cc(C2([S@](C)(=N)=O)CC2)nc(-c2cc[nH]c3nccc2-3)n1` [ceralasertib], `COc1cccc2c1C(=O)c1c(O)c3c(c(O)c1C2=O)C[C@@](O)(C(=O)CO)C[C@@H]3O[C@H]1C[C@H](N)[C@H](O)[C@H](C)O1` [doxorubicin] is lower in “CTG-3D luminescence at 96 h” value: 0.531 ± 0.11 for the first, 0.19 ± 0.0086 for the second.

First: C[C@H](NC(=O)CCC(F)(F)F)C(=O)N[C@@H]1C(=O)N(CCO)c2ncccc2-c2ccccc21 [crenigacestat]
Second: C[C@]12CC[C@@H]3c4ccc(O)cc4C[C@@H](CCCCCCCCC[S+]([O-])CCCC(F)(F)C(F)(F)F)[C@H]3[C@@H]1CC[C@@H]2O (stereo partly specified) [fulvestrant]
The “CTG-3D luminescence at 96 h” value of the first is higher: 1.7 ± 0.035 for the first, 1.36 ± 0.14 for the second.

For `Nc1ccn([C@@H]2O[C@H](CO)[C@@H](O)C2(F)F)c(=O)n1` [gemcitabine], the “CTG-3D luminescence at 96 h” value was 0.717 ± 0.16.

same assay, conditions: 10 µM; days in culture: 244

Going from `O=C(O)C1(C(=O)O)CCC1.[NH2-].[NH2-].[Pt+2]` [carboplatin] to `O=C(c1ccc(F)c(F)c1Nc1ccc(I)cc1F)N1CC(O)([C@@H]2CCCCN2)C1` [cobimetinib], the “CTG-3D luminescence at 96 h” value falls from 1.89 to 1.08.

Compared with `COc1cc2c(Oc3ccc4[nH]c(C)cc4c3F)ncnc2cc1OCCCN1CCCC1` [cediranib], `Cc1cc(Nc2ncc(Cl)c(Nc3ccccc3S(=O)(=O)C(C)C)n2)c(OC(C)C)cc1C1CCNCC1` [ceritinib] is lower in “CTG-3D luminescence at 96 h” value: 0.0639 for the first, 0.0065 for the second.

First: C[C@@H]1COCCN1c1cc(C2([S@](C)(=N)=O)CC2)nc(-c2cc[nH]c3nccc2-3)n1 [ceralasertib]
Second: COc1cccc2c1C(=O)c1c(O)c3c(c(O)c1C2=O)C[C@@](O)(C(=O)CO)C[C@@H]3O[C@H]1C[C@H](N)[C@H](O)[C@H](C)O1 [doxorubicin]
The “CTG-3D luminescence at 96 h” value of the first is higher: 0.71 for the first, 0.198 for the second.

Compared with `C[C@H](NC(=O)CCC(F)(F)F)C(=O)N[C@@H]1C(=O)N(CCO)c2ncccc2-c2ccccc21` [crenigacestat], `C[C@]12CC[C@@H]3c4ccc(O)cc4C[C@@H](CCCCCCCCC[S+]([O-])CCCC(F)(F)C(F)(F)F)[C@H]3[C@@H]1CC[C@@H]2O` (stereo partly specified) [fulvestrant] is higher in “CTG-3D luminescence at 96 h” value: 1.57 for the first, 1.9 for the second.

In the case of `Nc1ccn([C@@H]2O[C@H](CO)[C@@H](O)C2(F)F)c(=O)n1` [gemcitabine], the “CTG-3D luminescence at 96 h” value is reported as 0.873.
